Measurements reported in patent US20230271954A1 (Gossamer Bio Services, Inc., priority 2020, published 2023).

Columns and labels:
[1] = target: DGKα (Homo sapiens, UniProt P23743); assay: DGKα biochemical assay (ADP-Glo); details: read-out: DGK α IC50
Description: (§1) Compounds of the present invention were prepared into 10 mM DMSO solution and 10 nL of stock was transferred into 384 plates (Optiplate 384 plate) using Echo550. DMSO was used as high control, and ATP substrate buffer was used as a low control. A 1× enzyme assay buffer was prepared (Hepes, pH 7.0 25 mM, BSA 0.05%, Triton-X100 0.002%, CaCl2) 1 μM, MgCl2 10 mM, DTT 2 mM). […] OAG (1-oleoyl-2-acetyl-sn-glycerol, 25 mg/ml, Avanti 8001000) and PS (10 mg/ml, Avanti 840032P) were mixed at the ratio of 1:2. A 1× substrate solution was prepared with 1× assay buffer by 100-fold dilution. The substrate solution was sonicated on ice for 1 min. The pure ATP was added to the substrate solution (DGKα:400 μM). 5 μL of the enzyme solution were added to the 384 well plate, and the plate was spun for 1 min at 1000 rpm and incubated for 30 mins at RT. 5 μL of 1× substrate solution were added to the 384 well plate, the plate was spun and then incubated for 45 mins at RT. 10 μL ADP-Glo […] was added to stop the assay. After 60 mins at RT, 20 μL ADP-Glo Detection buffer was added as the final step. Plate was read after 45 min incubation at RT.
(§2) Data analysis was performed by calculating the […] using following the formula:
(§3) [formula] • High control (Hc): DMSO/DGKα(DGKζ)/Substrate/ATP/ADP-Glo • Low Control (Lc): ATP/ADP-Glo

[2] = target: T1, DGKζ (Homo sapiens, UniProt Q13574); assay: DGKζ biochemical assay (ADP-Glo); details: read-out: DGK ζ IC50
T1 construct: purchased Carna 12-110
T1 sequence (Q13574 1-929 isoform Q13574-4): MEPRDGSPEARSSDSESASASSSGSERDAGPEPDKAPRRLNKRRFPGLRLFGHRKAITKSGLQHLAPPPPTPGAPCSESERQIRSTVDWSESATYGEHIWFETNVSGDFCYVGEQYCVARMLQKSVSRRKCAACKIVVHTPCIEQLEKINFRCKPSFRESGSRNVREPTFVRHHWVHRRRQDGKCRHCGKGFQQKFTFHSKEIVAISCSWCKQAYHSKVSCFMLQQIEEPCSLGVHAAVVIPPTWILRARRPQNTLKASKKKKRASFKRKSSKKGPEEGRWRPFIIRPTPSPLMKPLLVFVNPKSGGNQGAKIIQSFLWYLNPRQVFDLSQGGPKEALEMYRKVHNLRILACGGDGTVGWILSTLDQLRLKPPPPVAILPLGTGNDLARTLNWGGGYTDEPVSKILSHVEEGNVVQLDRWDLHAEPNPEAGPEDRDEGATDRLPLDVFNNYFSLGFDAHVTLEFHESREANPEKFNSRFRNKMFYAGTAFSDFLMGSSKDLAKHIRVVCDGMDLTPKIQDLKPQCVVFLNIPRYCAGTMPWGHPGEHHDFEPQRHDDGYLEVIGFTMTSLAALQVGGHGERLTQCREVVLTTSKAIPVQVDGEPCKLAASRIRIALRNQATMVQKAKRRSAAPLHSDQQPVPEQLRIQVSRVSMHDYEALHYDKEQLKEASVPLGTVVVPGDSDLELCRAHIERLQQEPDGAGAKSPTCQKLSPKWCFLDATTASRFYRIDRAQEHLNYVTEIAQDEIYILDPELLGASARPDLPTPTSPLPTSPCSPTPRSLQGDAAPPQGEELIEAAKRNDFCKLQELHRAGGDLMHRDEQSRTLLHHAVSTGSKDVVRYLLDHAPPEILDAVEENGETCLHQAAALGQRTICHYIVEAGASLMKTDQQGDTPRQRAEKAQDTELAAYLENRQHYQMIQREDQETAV
Description: as §1, §2, §3

DGKα, sequence (P23743 whole entry): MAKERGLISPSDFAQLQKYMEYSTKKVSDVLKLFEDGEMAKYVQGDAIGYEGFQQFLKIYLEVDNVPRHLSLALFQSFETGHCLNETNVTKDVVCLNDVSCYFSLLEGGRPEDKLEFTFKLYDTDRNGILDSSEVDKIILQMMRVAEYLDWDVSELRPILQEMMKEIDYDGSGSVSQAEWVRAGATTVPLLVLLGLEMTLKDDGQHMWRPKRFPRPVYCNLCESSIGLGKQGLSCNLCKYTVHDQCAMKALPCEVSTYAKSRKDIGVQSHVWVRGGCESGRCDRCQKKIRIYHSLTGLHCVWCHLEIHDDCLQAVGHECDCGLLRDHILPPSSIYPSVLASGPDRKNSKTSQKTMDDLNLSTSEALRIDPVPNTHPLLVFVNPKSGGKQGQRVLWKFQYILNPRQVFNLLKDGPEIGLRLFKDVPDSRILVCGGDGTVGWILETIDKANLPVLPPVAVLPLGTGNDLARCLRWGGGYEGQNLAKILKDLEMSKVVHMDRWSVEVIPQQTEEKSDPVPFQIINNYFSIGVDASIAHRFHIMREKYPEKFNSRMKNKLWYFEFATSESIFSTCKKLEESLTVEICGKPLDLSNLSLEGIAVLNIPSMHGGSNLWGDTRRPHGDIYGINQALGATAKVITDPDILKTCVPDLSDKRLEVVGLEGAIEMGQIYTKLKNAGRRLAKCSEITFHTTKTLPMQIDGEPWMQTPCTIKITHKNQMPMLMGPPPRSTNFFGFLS

SMILES	IC50 [1]	IC50 [2]
Cn1c(=O)cc(N(C)[C@H]2CC[C@H](N(CC3COC3)c3ccc(F)cc3O)CC2)c2nc(C#N)ccc21 [Example 3BB, trans-8-((4-((4-fluoro-2-hydroxyphenyl)(oxetan-3-ylmethyl)amino)cyclohexyl)(methyl)amino)-5-methyl-6-oxo-5,6-dihydro-1,5-naphthyridine-2-carbonitrile]	≥ 1 µM	≥ 1 µM
Cn1c(=O)c(C#N)c(N(C)[C@H]2CC[C@H](N(c3ccccc3)C3CC3)CC2)c2nc(Cl)ccc21 [Example 3C, trans-6-Chloro-4-((4-(cyclopropyl(phenyl)amino)cyclohexyl)(methyl)amino)-1-methyl-2-oxo-1,2-dihydro-1,5-naphthyridine-3-carbonitrile]	0.01 to 0.1 µM	≥ 1 µM
Cn1c(=O)c(C#N)c(N(C)[C@H]2CC[C@@H](N(c3ccc(F)cc3F)C3CC3)CC2)c2nc(Cl)ccc21 [Example 3CC, cis-6-Chloro-4-[[4-(N-cyclopropyl-2,4-difluoro-anilino)cyclohexyl]-methyl-amino]-1-methyl-2-oxo-1,5-naphthyridine-3-carbonitrile]	0.1 to 1 µM	≥ 1 µM
Cn1c(=O)c(C#N)c(N(C)[C@H]2CC[C@H](N(c3ccccc3O)C3CC3)CC2)c2nc(Cl)ccc21 [Example 3D, 6-Chloro-4-((trans-4-(cyclopropyl(2-hydroxyphenyl)amino)cyclohexyl)(methyl)amino)-1-methyl-2-oxo-1,2-dihydro-1,5-naphthyridine-3-carbonitrile]	0.01 to 0.1 µM	0.1 to 1 µM
COc1ccc(N(C2CC2)[C@H]2CC[C@H](N(C)c3c(C#N)c(=O)n(C)c4ccc(Cl)nc34)CC2)cc1 [Example 3E, trans-6-chloro-4-((4-(cyclopropyl(4-methoxyphenyl)amino)cyclohexyl)(methyl)amino)-1-methyl-2-oxo-1,2-dihydro-1,5-naphthyridine-3-carbonitrile]	0.01 to 0.1 µM	≥ 1 µM
Cn1c(=O)c(C#N)c(N(C)[C@H]2CC[C@H](N(c3ccc(F)cc3)C3CC3)CC2)c2nc(Cl)ccc21 [Example 3F, trans-6-chloro-4-((4-(cyclopropyl(4-fluorophenyl)amino)cyclohexyl) (methyl)amino)-1-methyl-2-oxo-1,2-dihydro-1,5-naphthyridine-3-carbonitrile]	0.01 to 0.1 µM	0.1 to 1 µM
Cn1c(=O)c(C#N)c(N(C)[C@H]2CC[C@H](N(c3ccc(F)cc3O)C3CC3)CC2)c2nc(Cl)ccc21 [Example 3G, trans-6-chloro-4-((4-(cyclopropyl(4-fluoro-2-hydroxyphenyl)amino)cyclohexyl)(methyl)amino)-1-methyl-2-oxo-1,2-dihydro-1,5-naphthyridine-3-carbonitrile]	0.01 to 0.1 µM	≥ 1 µM
COc1cc(F)ccc1N(C1CC1)[C@H]1CC[C@@H](N(C)c2c(C#N)c(=O)n(C)c3ccc(Cl)nc23)CC1 [Example 3H, cis-6-chloro-4-((4-(cyclopropyl(4-fluoro-2-methoxyphenyl)amino)cyclohexyl)(methyl)amino)-1-methyl-2-oxo-1,2-dihydro-1,5-naphthyridine-3-carbonitrile]	0.1 to 1 µM	0.01 to 0.1 µM
Cn1c(=O)c(C#N)c(N(C)[C@H]2CC[C@H](N(c3ccc(F)cn3)C3CC3)CC2)c2nc(Cl)ccc21 [Example 3I]	0.01 to 0.1 µM	0.1 to 1 µM
COc1ccc(N(C2CC2)[C@H]2CC[C@H](N(C)c3c(C#N)c(=O)n(C)c4ccc(Cl)nc34)CC2)nc1 [Example 3J, trans-6-chloro-4-((4-(cyclopropyl(5-methoxypyridin-2-yl)amino)cyclohexyl)(methyl)amino)-1-methyl-2-oxo-1,2-dihydro-1,5-naphthyridine-3-carbonitrile]	0.01 to 0.1 µM	0.1 to 1 µM
Cn1c(=O)c(C#N)c(N(C)[C@H]2CC[C@H](N(CC3CC3)c3ccc(F)cn3)CC2)c2nc(Cl)ccc21 [Example 3L, trans-6-chloro-4-((4-((cyclopropylmethyl)(5-fluoropyridin-2-yl)amino)cyclohexyl)(methyl)amino)-1-methyl-2-oxo-1,2-dihydro-1,5-naphthyridine-3-carbonitrile]	0.01 to 0.1 µM	0.1 to 1 µM
Cn1c(=O)c(C#N)c(N(C)[C@H]2CC[C@@H](N(CC3COC3)c3ccc(F)cc3)CC2)c2nc(Cl)ccc21 [Example 3M, cis-6-Chloro-4-[[4-(N-4-fluorophenyl-N-oxetan-3-ylmethylanilino)cyclohexyl]-methylamino]-1-methyl-2-oxo-1,2-dihydro-1,5-naphthyridine-3-carbonitrile]	0.01 to 0.1 µM	0.1 to 1 µM
Cn1c(=O)c(C#N)c(N(C)[C@H]2CC[C@H](N(CC3COC3)c3ccc(F)cc3)CC2)c2nc(Cl)ccc21 [Example 3N, trans-6-Chloro-4-[[4-(N-4-fluorophenyl-N-oxetan-3-ylmethylanilino)cyclohexyl]-methylamino]-1-methyl-2-oxo-1,2-dihydro-1,5-naphthyridine-3-carbonitrile]	0.01 to 0.1 µM	≥ 1 µM
Cn1c(=O)c(C#N)c(N(C)[C@H]2CC[C@H](N(CC3COC3)c3ccc(F)cc3O)CC2)c2nc(Cl)ccc21 [Example 3O, trans-6-chloro-4-((4-((4-fluoro-2-hydroxyphenyl)(oxetan-3-ylmethyl)amino)cyclohexyl)(methyl)amino)-1-methyl-2-oxo-1,2-dihydro-1,5-naphthyridine-3-carbonitrile]	0.1 to 1 µM	≥ 1 µM

Further lines, results first:

IC50 [1]	IC50 [2]	SMILES
0.1 to 1 µM	≥ 1 µM	Cn1c(=O)cc(N[C@H]2CC[C@@H](N(CC3COC3)c3ccccc3)CC2)c2nc(C#N)ccc21 [Example 3Q, cis-5-Methyl-8-((4-((oxetan-3-ylmethyl)(phenyl)amino)cyclohexyl)amino)-6-oxo-5,6-dihydro-1,5-naphthyridine-2-carbonitrile]
0.01 to 0.1 µM	≥ 1 µM	Cn1c(=O)cc(N[C@H]2CC[C@H](N(CC3CC3)c3ccc(F)cc3)CC2)c2nc(C#N)ccc21 [Example 3R, trans-8-((4-((Cyclopropylmethyl)(4-fluorophenyl)amino)cyclohexyl)amino)-5-methyl-6-oxo-5,6-dihydro-1,5-naphthyridine-2-carbonitrile]
0.1 to 1 µM	0.1 to 1 µM	Cn1c(=O)cc(N(C)[C@H]2CC[C@H](N(c3ccccc3)C3CC3)CC2)c2nc(C#N)ccc21 [Example 3T, trans-8-((4-(cyclopropyl(phenyl)amino)cyclohexyl)(methyl)amino)-5-methyl-6-oxo-5,6-dihydro-1,5-naphthyridine-2-carbonitrile]
≥ 1 µM	0.1 to 1 µM	COc1cc(F)ccc1N(C1CC1)[C@H]1CC[C@H](N(C)c2cc(=O)n(C)c3ccc(C#N)nc23)CC1 [Example 3V]
0.1 to 1 µM	0.1 to 1 µM	COc1cc(F)ccc1N(C1CC1)[C@H]1CC[C@@H](N(C)c2cc(=O)n(C)c3ccc(C#N)nc23)CC1 [Example 3W, cis-8-[[4-(N-Cyclopropyl-4-fluoro-2-methoxy-anilino)cyclohexyl]-methyl-amino]-5-methyl-6-oxo-1,5-naphthyridine-2-carbonitrile]
0.1 to 1 µM	≥ 1 µM	Cn1c(=O)cc(N(C)[C@H]2CC[C@H](N(c3ccc(F)cc3O)C3CC3)CC2)c2nc(C#N)ccc21 [Example 3X, trans-8-((4-(cyclopropyl(4-fluoro-2-hydroxyphenyl)amino)cyclohexyl)(methyl)amino)-5-methyl-6-oxo-5,6-dihydro-1,5-naphthyridine-2-carbonitrile]
≥ 1 µM	≥ 1 µM	COc1cc(F)ccc1N(CC1CC1)[C@H]1CC[C@H](N(C)c2cc(=O)n(C)c3ccc(C#N)nc23)CC1 [Example 3Y, trans-8-[[4-(N-cyclopropylmethyl-N-4-fluoro-2-methoxyphenyl-anilino)cyclohexyl]-methyl-amino]-5-methyl-6-oxo-5,6-dihydro-1,5-naphthyridine-2-carbonitrile]
0.1 to 1 µM	0.1 to 1 µM	COc1cc(F)ccc1N(CC1CC1)[C@H]1CC[C@@H](N(C)c2cc(=O)n(C)c3ccc(C#N)nc23)CC1 [Example 3Z, cis-8-[[4-(N-cyclopropylmethyl-N-4-fluoro-2-methoxyphenyl-anilino)cyclohexyl]-methyl-amino]-5-methyl-6-oxo-5,6-dihydro-1,5-naphthyridine-2-carbonitrile]
≥ 1 µM	≥ 1 µM	Cc1[nH]c2ccccc2c1C(=O)N[C@H]1CC[C@@H](N(CC2CC2)c2ccccc2)CC1 [Example 4A]
≥ 1 µM	≥ 1 µM	Cc1[nH]c2ccccc2c1C(=O)N[C@H]1CC[C@H](N(CC2CC2)c2ccccc2)CC1 [Example 4B]
≥ 1 µM	≥ 1 µM	Cc1[nH]c2ccccc2c1C(=O)N[C@H]1CC[C@H](N(CC2COC2)c2ccccc2)CC1 [Example 4C, trans-2-Methyl-N-(4-((oxetan-3-ylmethyl)(phenyl)amino)cyclohexyl)-1H-indole-3-carboxamide]
≥ 1 µM	≥ 1 µM	Cc1[nH]c2ccccc2c1C(=O)N[C@H]1CC[C@@H](N(CC2COC2)c2ccccc2)CC1 [Example 4D, cis-2-Methyl-N-(4-((oxetan-3-ylmethyl)(phenyl)amino)cyclohexyl)-1H-indole-3-carboxamide]
